Measured values from patent US4670456A, “4-Aminocarbonylaminomethyl-1-benzylpyrrolidin-2-ones as nootropic agents and as agents for treating cerebral insufficiency” (Boehringer Ingelheim KG, priority 1984, dated 1987).
Like-named read-outs stand apart in the source and are kept apart here.

Legend:
mice [1] = assay: Reversal of Scopolamine-Induced Transient Disruption of the Memory of a Passive Avoidance Procedure; format: in vivo; conditions: scopolamine 0.6 mg/kg i.p.
Procedure: 1. […] The animals used were mice, to which scopolamine was administered at a dosage of 0.6 mg/kg, i.p.

Acute Toxicity (LD50) = conditions: in vivo, po; mouse
Procedure: The acute toxicity of the test compounds was determined in the conventional manner, in the mouse.

[2] = biological target: muscarine-cholinergic receptor structures in the rat cortex; assay: Muscarine-Cholinergic Receptor Binding, cortex
Procedure: Also as described in Example 8, the compounds tested bound with high affinity to muscarine-cholinergic receptor structures in the rat cortex.
3. Muscarine-Cholinergic Receptor Binding
This test was performed according to the methods described by M. Watson et al., Life Sci., 32, 3001-3011 (1983) and R. Hammer et al., Nature, 283, 90=92 (1980). The IC50 values were calculated in the manner described by Y. C. Cheng et al., Biochemical Pharmacology, 22, 3099-3108 (1973).

[3] = biological target: Muscarine-Cholinergic Receptor (Hippocampus); assay: Muscarine-Cholinergic Receptor Binding, hippocampus; design: species or system rat
Procedure: The IC50 values were calculated in the manner described by Y. C.

mice [4] = assay: Hypoxia Tolerance Test; format: in vivo; conditions: 96.5% nitrogen, 3.5% oxygen, effective: at most 1-2 treated animals died when 7-8 untreated had died
Procedure: 2. Hypoxia Tolerance Test
In the method employed, mice which are untreated controls or which have been pretreated with the test substance (p.o.) are placed in respective sealed chambers which are filled with a gas mixture consisting of 96.5% nitrogen and 3.5% oxygen. The observer waits until 7-8 of the untreated animals have died. This occurs within 6-7 minutes. If the test substance is effective, at most 1-2 of the treated animals may have died.

[5] = Hippocampus, read-out: Muscarine Receptor Binding, IC50, Hippocampus
[6] = printed across the Hippocampus and Cortex columns, ineffective up to the stated concentration, read-out: Muscarine Receptor Binding, IC50, Hippocampus and Cortex (ineffective up to)

## CN1CCN(C(=O)NCC2CC(=O)N(Cc3ccccc3)C2)CC1 (centres unmarked) [Example 1, 4-(N-Methylpiperazinyl-carbonylaminomethyl)-1-benzylpyrrolidin-2-one]
Mice [1]; 10 mg/kg p.o.
  Scopolamine-Induced Memory Disruption, % Inhibition: 43%
Acute Toxicity (LD50)
  LD50 at 336 h: 1500 to 2000 mg/kg

## Cc1ccc(CN2CC(CNC(=O)N3CCN(C)CC3)CC2=O)cc1 (centres unmarked) [Example 13]
Mice [1]; 50 mg/kg p.o.
  Scopolamine-Induced Memory Disruption, % Inhibition: 50%
[2]
  IC50: > 10 µM
[3]; [5]
  IC50: 26 µM

## COc1ccc(C(=O)N2CCCC2=O)cc1 [Aniracetam, 1-(p-methoxybenzoyl)-pyrrolidin-2-one, reference compound]
Mice [1]; 30 mg/kg p.o.
  Scopolamine-Induced Memory Disruption, % Inhibition: 29.7%
Mice [1]; 50 mg/kg p.o.
  Scopolamine-Induced Memory Disruption, % Inhibition: 42.6%
Mice [1]; 100 mg/kg p.o.
  Scopolamine-Induced Memory Disruption, % Inhibition: 49.3%
[3]; [6]
  IC50: > 100 µM

## CNC(=O)NCC1CC(=O)N(Cc2ccccc2)C1 (centres unmarked) [Example 7]
Mice [1]; 100 mg/kg p.o.
  Scopolamine-Induced Memory Disruption, % Inhibition: 60%
[3]; [5]
  IC50: > 100 µM

## O=C(NCC1CC(=O)N(Cc2ccccc2)C1)Nc1ccc(Cl)cc1 (centres unmarked) [Example 5, 4-(p-Chlorophenylamino-carbonylaminomethyl)-1-benzylpyrrolidin-2-one]
Mice [4]; 100 mg/kg p.o.
  Hypoxia Tolerance: effective
Mice [1]; 5 mg/kg p.o.
  Scopolamine-Induced Memory Disruption, % Inhibition: 50%
Mice [1]; 10 mg/kg p.o.
  Scopolamine-Induced Memory Disruption, % Inhibition: 70%
Acute Toxicity (LD50)
  LD50 at 336 h: > 2000 mg/kg
[3]; [5]
  IC50: 93 µM

## CN1CCN(C(=O)N(C)CC2CC(=O)N(Cc3ccccc3)C2)CC1 (centres unmarked) [Example 17]
Mice [1]; 30 mg/kg p.o.
  Scopolamine-Induced Memory Disruption, % Inhibition: 45%
[3]; [5]
  IC50: > 100 µM

## NC(=O)CN1CCCC1=O [Piracetam, 1-carbomyl-methyl-pyrrolidin-2-one, reference compound]
Mice [4]; 150 mg/kg p.o.
  Hypoxia Tolerance: effective
Mice [1]; 100 mg/kg p.o.
  Scopolamine-Induced Memory Disruption, % Inhibition: 42.9%
Mice [1]; 200 mg/kg p.o.
  Scopolamine-Induced Memory Disruption, % Inhibition: 53.7%
Mice [1]; 500 mg/kg p.o.
  Scopolamine-Induced Memory Disruption, % Inhibition: 50.0%
[3]; [6]
  IC50: > 1000 µM
